Read-outs that look alike come from different tables or passages of the source.
Tests used:
Assay type in all cases: biochemical
[1] = biological target: AChE from Electrophorus electricus (EeAChE) (Electrophorus electricus, UniProt O42275); experiment: Ellman cholinesterase assay, purified AChE from Electrophorus electricus
Procedure: (§1) The compounds selected as inhibitors of AChE activity were obtained commercially from MolPort (http://www.molport.com/buy-chemicals/index). They were dissolved in dimethyl sulfoxide (DMSO), at a final concentration of 0.1%.
(§2) The cholinesterase activities were measured based on Ellman et al.'s method. The increase of absorbance was monitored at 412 nm in a reaction mixture containing 10 mM potassium phosphate buffer, pH 7.4, and 1 mM DTNB [5,5′-dithiobis-(2-nitrobenzoic) acid] (from Sigma) in the presence of one of the following enzymes: purified AChE from Electrophorus electricus (EeAChE)—0.05 U/ml, AChE from human erythrocytes (HsAChE), AChE from Danio rerio (DrAChE)—0.5 μg, and purified BChE from Equus ferus (EfBChE)—0.05 U/mL. The compounds (or only 0.1% DMSO for the control group) were preincubated with the enzyme during 10 minutes at room temperature, and the reaction was started with the addition of acetylthiocholine or butyrylthiocholine (0.8 mM).
(§3) The IC50 values were determined by nonlinear regression (log concentration-inhibition curves). Data were analyzed by one-way analysis of variance (ANOVA) followed by Student-Newman-Keuls test. Statistical significance was set at P < 0.05. The statistics have been performed using GraphPad Prism 5 (version 5.01, GraphPad Software, Inc., USA).

[2] = biological target: T1, AChE from Danio rerio (DrAChE) (Danio rerio, UniProt Q9DDE3); experiment: Ellman cholinesterase assay, zebrafish brain homogenate AChE
T1 construct: zebrafish brains were homogenized on ice in 60 volumes (v/w) of Tris-citrate buffer; from tissue; host or cells: zebrafish brain homogenate
T1 sequence (Q9DDE3 24-634): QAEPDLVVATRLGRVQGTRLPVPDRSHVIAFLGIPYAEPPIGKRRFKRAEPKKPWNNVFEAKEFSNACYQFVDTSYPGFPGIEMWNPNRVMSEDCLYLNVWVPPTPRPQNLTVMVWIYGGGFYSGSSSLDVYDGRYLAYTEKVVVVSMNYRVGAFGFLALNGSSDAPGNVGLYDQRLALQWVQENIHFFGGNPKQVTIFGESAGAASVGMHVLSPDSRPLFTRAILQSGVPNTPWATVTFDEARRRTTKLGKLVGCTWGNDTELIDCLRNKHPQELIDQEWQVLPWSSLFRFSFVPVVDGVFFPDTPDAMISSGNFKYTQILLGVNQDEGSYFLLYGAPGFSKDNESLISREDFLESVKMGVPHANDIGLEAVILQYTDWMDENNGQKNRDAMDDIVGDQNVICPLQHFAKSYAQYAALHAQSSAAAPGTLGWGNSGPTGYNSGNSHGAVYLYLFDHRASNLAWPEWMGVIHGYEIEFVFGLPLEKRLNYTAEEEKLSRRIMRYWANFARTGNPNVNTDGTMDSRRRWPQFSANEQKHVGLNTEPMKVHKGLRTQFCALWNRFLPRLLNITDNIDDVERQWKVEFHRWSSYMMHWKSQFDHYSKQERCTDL
Procedure: as §1, §2
The DrAChE assay was performed as previously described by Rosemberg et al. (2010). Briefly, zebrafish brains were homogenized on ice in 60 volumes (v/w) of Tris-citrate buffer (50 mM Tris, 2 mM EDTA, 2 mM EGTA, and pH 7.4, with citric acid) using a Potter-Elvehjem-type glass homogenizer. Samples (0.5 μg protein) were preincubated for 10 min at 25°C and the enzyme activity was further assessed in the absence and the presence of the selected compounds.
as §3

[3] = biological target: T2, AChE from human erythrocytes (HsAChE) (Homo sapiens, UniProt P22303); experiment: Ellman cholinesterase assay, human erythrocyte ghost AChE
T2 construct: from tissue; host or cells: human erythrocyte ghosts from blood of healthy donors
T2 sequence (P22303 other isoform, or with tags, fused parts or gaps): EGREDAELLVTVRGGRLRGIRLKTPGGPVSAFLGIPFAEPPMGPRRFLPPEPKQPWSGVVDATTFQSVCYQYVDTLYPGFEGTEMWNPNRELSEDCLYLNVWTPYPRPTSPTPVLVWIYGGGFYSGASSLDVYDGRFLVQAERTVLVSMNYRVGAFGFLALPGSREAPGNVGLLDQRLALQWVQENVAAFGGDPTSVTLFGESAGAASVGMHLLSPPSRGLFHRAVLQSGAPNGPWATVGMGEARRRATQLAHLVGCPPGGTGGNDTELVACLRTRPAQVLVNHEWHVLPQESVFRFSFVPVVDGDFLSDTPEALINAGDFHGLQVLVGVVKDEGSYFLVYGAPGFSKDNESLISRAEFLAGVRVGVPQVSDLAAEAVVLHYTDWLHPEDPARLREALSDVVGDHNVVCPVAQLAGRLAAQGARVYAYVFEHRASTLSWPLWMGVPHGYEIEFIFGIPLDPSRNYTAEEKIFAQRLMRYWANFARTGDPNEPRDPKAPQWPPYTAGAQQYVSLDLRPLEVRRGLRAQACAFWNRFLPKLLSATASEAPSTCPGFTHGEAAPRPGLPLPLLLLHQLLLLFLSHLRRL
Procedure: as §1, §2
Haemoglobin-free erythrocyte ghosts were prepared according to the method previously described. Blood of nonfasted healthy voluntary donors was collected. Heparinized human blood was centrifuged at 3000 g for 10 min. The packed erythrocytes were diluted in 20 volumes (w/v) of hypotonic sodium/potassium phosphate buffer (6.7 mM, pH 7.4) to facilitate the hemolysis, followed by centrifugation at 30.000 g for 30 min at 4°C. The supernatant was removed and the pellet resuspended in hypotonic phosphate buffer. After two additional washing cycles, the pellet was resuspended in sodium/potassium phosphate buffer (0.1 M, pH 7.4) and then centrifuged again at 30.000 g for 30 min at 4°C. The supernatant was gently removed and the pellet was stored. Aliquots of the erythrocyte ghosts were stored at −20°C until usage within one week. The sample was diluted 10 times for AChE activity measurement. Fifty μL of the stored ghost preparation, in a final volume of 200 μL, was used for the assay. Hemoglobin content from ghost membranes was measured at 540 nm as the cyano-met-Hb form, but no hemoglobin was detected.
as §3

[4] = biological target: BChE from Equus ferus (EfBChE) (Equus caballus, UniProt P81908); experiment: Ellman cholinesterase assay, purified BChE from Equus ferus
Chain of BChE from Equus ferus (EfBChE) (P81908 whole entry): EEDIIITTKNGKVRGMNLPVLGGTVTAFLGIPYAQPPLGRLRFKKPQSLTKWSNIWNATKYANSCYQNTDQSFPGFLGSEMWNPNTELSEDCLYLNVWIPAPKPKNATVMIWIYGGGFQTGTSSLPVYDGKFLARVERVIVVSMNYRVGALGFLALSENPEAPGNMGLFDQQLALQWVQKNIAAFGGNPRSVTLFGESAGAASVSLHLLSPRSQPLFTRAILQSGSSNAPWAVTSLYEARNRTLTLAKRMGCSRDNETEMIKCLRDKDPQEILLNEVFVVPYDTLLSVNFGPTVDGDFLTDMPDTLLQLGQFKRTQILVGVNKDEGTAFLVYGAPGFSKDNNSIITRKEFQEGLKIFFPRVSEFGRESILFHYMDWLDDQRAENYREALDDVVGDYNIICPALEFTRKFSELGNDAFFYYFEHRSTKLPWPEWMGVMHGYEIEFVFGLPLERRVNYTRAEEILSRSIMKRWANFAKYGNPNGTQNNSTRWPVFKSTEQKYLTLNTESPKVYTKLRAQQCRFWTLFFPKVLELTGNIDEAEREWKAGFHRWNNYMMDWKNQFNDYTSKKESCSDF
Procedure: as §1, §2, §3

[5] = purified EeAChE 0.05 U/ml, 10 min preincubation, acetylthiocholine 0.8 mM, read-out: IC50 EeAChE
[6] = zebrafish brain homogenate 0.5 μg protein, 10 min preincubation, read-out: IC50 DrAChE
[7] = human erythrocyte ghosts, 10 min preincubation, read-out: IC50 HsAChE
[8] = purified BChE 0.05 U/mL, 10 min preincubation, butyrylthiocholine 0.8 mM, read-out: IC50 EcBChE

Chain of AChE from Electrophorus electricus (EeAChE) (O42275 24-633): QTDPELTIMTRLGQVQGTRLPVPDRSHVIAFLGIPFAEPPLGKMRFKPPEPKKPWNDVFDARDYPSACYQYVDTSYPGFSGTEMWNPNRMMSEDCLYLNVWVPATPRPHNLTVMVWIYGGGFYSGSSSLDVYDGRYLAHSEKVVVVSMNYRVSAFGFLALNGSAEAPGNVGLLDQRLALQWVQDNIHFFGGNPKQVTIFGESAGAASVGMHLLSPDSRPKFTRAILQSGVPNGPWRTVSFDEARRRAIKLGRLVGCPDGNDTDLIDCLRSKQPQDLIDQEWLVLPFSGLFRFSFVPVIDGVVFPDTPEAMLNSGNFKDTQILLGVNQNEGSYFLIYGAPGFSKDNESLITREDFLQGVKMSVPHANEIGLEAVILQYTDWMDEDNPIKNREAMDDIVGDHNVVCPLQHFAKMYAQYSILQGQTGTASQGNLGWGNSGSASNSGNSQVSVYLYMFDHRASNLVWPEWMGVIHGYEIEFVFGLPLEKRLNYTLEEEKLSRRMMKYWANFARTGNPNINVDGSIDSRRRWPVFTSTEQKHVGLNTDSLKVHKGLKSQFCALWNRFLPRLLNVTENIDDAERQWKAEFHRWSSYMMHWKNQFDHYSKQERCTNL

CCCC[N+]1(CC#CC2(O)c3ccccc3-c3ccccc32)CCC(c2ccccc2)C1 (stereo not shown) [C]
IC50 [1, 5]: 761 ± 128 µM
IC50 [2, 6]: 239 ± 2.95 µM
IC50 [3, 7]: 92.1 ± 39.7 µM
IC50 [4, 8]: 0.75 ± 0.18 µM

C[N+]1(C)CCC2(CC1)Oc1ccccc1C1CC(c3ccc4ccccc4c3)=NN12 (stereo not shown) [G]
IC50 [1]: 344 ± 50.7 µM
IC50 [2]: 49.8 ± 15.3 µM
IC50 [3]: 70 ± 7.96 µM
IC50 [4]: 9.51 ± 6.94 µM

C[N+]1(Cc2ccc(-c3nnc(-c4ccc([N+](=O)[O-])cc4)o3)cc2)CCc2[nH]c3ccccc3c2C1 (stereo not shown) [Compound D]
IC50 [1, 5]: 5.39 ± 0.55 µM
IC50 [2, 6]: 2.31 ± 0.29 µM
IC50 [3, 7]: 1.69 ± 0.46 µM
IC50 [4, 8]: 5.64 ± 2.47 µM

COc1c2c(cc3c1[C@H](CC(=O)c1cc4c(cc1C)C(C)(C)[C@@H](C)C4(C)C)[N+](C)(C)CC3)OCO2 [B]
IC50 [1, 5]: 578 ± 84.3 µM
IC50 [2, 6]: 21.2 ± 1.44 µM
IC50 [3, 7]: 37.5 ± 1.97 µM
IC50 [4, 8]: 4.02 ± 0.78 µM

c1ccc(-c2c3c(cc4ccccc24)C[N+]2(CCCC2)C3)cc1 [Compound E]
IC50 [1, 5]: 342 ± 54.6 µM
IC50 [2, 6]: 26.4 ± 5.3 µM
IC50 [3, 7]: 512 ± 301 µM
IC50 [4, 8]: 12.7 ± 7.66 µM

C[N+]1(C)CCC2(CC1)Oc1ccccc1C1CC(c3ccc(-c4ccccc4)cc3)=NN12 (stereo not shown) [F]
IC50 [1]: 84.2 ± 6 µM
IC50 [2]: 192 ± 29.8 µM
IC50 [3]: 151 ± 61.7 µM
IC50 [4]: 32.9 ± 3.88 µM

O=c1ccc2ccc(OCC[N+]34CCC(CC3)C(C(O)(c3ccccc3)c3ccccc3)C4)cc2o1 (stereo not shown) [A]
IC50 [1]: 36.3 ± 3.14 µM
IC50 [2]: 26.2 ± 3.98 µM
IC50 [3]: 13.2 ± 1.38 µM
IC50 [4]: 22.2 ± 1.06 µM
